Patent US12391698B2, “Substituted piperidines and piperazines and methods for the treatment of CNS disorders” (SUVEN LIFE SCIENCES LIMITED, priority 2022, dated 2025)
Where a name gives a salt, the structure may show the parent alone.

Legend:
Male Wistar rats = assay: Rotarod test; assay type: in vivo, rat; conditions: 30 mg/kg p.o., 60 min prior to trial
Protocol: Male Wistar rats of 200-280 g body weight were used. Rats were weighed and randomized according to their body weights. The animals were habituated on a rotating rod (4 rpm) for 4 times. Animals which successfully stayed on the rotating rod for 60 seconds (out of 4 trials per animal) were selected for further study. […] A single trial was carried out on the next day. Animals that were able to stay on the rotating rod for 60 seconds were chosen for further study. Animals were administered with test compound or vehicle 60 min prior to the trial. The latency to fall from the rotating rod was noted. Rotarod test assesses effects of test compound on motor functions.

Male Sprague Dawley rats = assay: Amphetamine-induced hyperlocomotion; assay type: in vivo, rat; conditions: 3 mg/kg, p.o., dosed 30 min prior to trial
Protocol: Male Sprague Dawley rats of 230-280 g body weight were used. Rats were weighed and randomized according to their body weights. Following day, the rats were brought to the laboratory 1 h prior to test. In the morning session, rats were habituated to open field arena for 15 min. Test compound/vehicle and amphetamine/vehicle were administered 30 min prior to the trial. After the post-dose interval, rats were placed in the open field and locomotion was recorded for a period of 15 min. Amphetamine-induced hyperlocomotion models positive symptoms of schizophrenia.

O=C1C[C@@H]2CCCN2C(=O)N1CCCCN1CCN(c2nsc3ccccc23)CC1 [Example 2, 2-[4-(4-Benzo[d]isothiazol-3-yl-piperazin-1-yl)-butyl]-tetrahydro-pyrrolo[1,2-c]pyrimidine-1,3-dione oxalate]
Inference, rotarod test (motor incoordination side effects) (Male Wistar rats): No motor incoordination
Inference, amphetamine antagonism (hyperlocomotion) (Male Sprague Dawley rats): Active
